Laboratory results taken from ChEMBL document CHEMBL5500363, “Discovery of novel ocotillol derivatives modulating glucocorticoid receptor/NF-κB signaling for the treatment of sepsis” (Eur J Med Chem, 2024).
The source made the active and inactive calls. No cut-off for these calls is given here.

What was measured:
[1] = tested on: RAW264.7; assay: Downregulation of glucocorticoid receptor in LPS-treated mouse RAW264.7 cells at 1 uM incubated for 24 hrs by qRT-PCR analysis; type: functional, cell-based
[2] = tested on: RAW264.7; assay: Downregulation of glucocorticoid receptor in mouse RAW264.7 cells at 1 uM incubated for 24 hrs by Western blot analysis; type: functional, cell-based
[3] = tested on: RAW264.7; assay: Effect on KLF9 mRNA expression in mouse RAW264.7 cells by qPCR analysis; type: functional, cell-based
[4] = tested on: Mus musculus; assay: Anti-septic activity in LPS-induced sepsis BALB/c mouse assessed as reduction in serum ALT level at 30 mg/kg administered via gavage for 3 days followed by LPS treatment for 6 hrs; type: functional, organism-based; settings: time 78.0 hrs
[5] = tested on: Mus musculus; assay: Downregulation of p65 phosphorylation in liver of LPS-induced sepsis BALB/c mouse model at 7.5 to 30 mg/kg administered via gavage for 3 days followed by LPS treatment for 6 hrs by Western blot analysis; type: functional, organism-based; settings: dose 7.5-30 mg/kg, time 78.0 hrs
[6] = tested on: RAW264.7; assay: Inhibition of LPS-induced NO production in mouse RAW264.7 cells at 10 uM pretreated for 2 hrs followed by LPS stimulation for 24 hrs by Griess assay relative to control; type: functional; settings: time 26 hrs
[7] = target: T1, Glucocorticoid receptor (Mus musculus) (UniProt P06537); assay: Stabilization of glucocorticoid receptor in mouse RAW264.7 cells assessed as blockade of CHX-induced protein degradation at 20 uM incubated for 24 hrs by Western blot analysis; type: cell-based
T1 sequence (whole entry): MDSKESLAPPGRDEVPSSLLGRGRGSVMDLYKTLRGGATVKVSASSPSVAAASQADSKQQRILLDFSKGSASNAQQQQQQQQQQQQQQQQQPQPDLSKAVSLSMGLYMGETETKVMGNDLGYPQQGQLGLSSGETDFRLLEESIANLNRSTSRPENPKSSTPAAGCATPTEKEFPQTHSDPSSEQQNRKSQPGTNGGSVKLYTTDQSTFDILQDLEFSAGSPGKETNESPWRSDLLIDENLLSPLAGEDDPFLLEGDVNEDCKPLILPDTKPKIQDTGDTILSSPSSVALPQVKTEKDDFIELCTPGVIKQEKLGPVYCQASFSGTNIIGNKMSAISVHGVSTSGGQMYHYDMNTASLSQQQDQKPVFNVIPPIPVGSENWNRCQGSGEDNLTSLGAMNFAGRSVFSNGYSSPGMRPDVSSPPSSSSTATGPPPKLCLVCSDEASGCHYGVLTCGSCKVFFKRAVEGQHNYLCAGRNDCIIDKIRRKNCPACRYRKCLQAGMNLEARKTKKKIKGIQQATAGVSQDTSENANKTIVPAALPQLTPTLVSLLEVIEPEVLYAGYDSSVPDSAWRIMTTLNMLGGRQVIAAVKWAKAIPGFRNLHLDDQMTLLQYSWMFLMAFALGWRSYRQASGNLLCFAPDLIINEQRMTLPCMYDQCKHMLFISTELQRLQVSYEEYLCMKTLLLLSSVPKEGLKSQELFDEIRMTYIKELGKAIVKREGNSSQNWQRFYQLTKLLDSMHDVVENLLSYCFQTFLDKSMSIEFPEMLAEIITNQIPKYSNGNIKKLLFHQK

[8] = tested on: RAW264.7; assay: Inhibition of LPS-induced NO production in mouse RAW264.7 cells at 5 uM pretreated for 2 hrs followed by LPS stimulation for 24 hrs by Griess assay relative to control; type: functional; settings: time 26 hrs
[9] = tested on: Mus musculus; assay: Anti-septic activity in LPS-induced sepsis BALB/c mouse assessed as reduction in serum AST level at 30 mg/kg administered via gavage for 3 days followed by LPS treatment for 6 hrs; type: functional, organism-based; settings: time 78.0 hrs
[10] = tested on: RAW264.7; assay: Inhibition of LPS-induced NO production in mouse RAW264.7 cells pretreated for 2 hrs followed by LPS stimulation for 24 hrs by Griess assay; type: functional, cell-based
[11] = tested on: RAW264.7; assay: Anti-inflammatory activity in LPS-treated mouse RAW264.7 cells assessed as reversal of nuclear translocation of p65 at 20 uM pretreated for 2 hrs followed by LPS stimulation for 24 hrs by immunofluorescence analysis; type: functional, cell-based; settings: time 26.0 hrs
[12] = tested on: Mus musculus; assay: Anti-septic activity in LPS-induced sepsis BALB/c mouse assessed as reduction in serum CRP level at 30 mg/kg administered via gavage for 3 days followed by LPS treatment for 6 hrs; type: functional, organism-based; settings: time 78.0 hrs
[13] = tested on: RAW264.7; assay: Inhibition of LPS-induced NO production in mouse RAW264.7 cells at 20 uM pretreated for 2 hrs followed by LPS stimulation for 24 hrs by Griess assay relative to control; type: functional; settings: time 26 hrs
[14] = tested on: RAW264.7; assay: Anti-inflammatory activity in mouse RAW264.7 cells assessed as decrease in LPS-induced p65 phosphorylation at 20 uM pretreated for 2 hrs followed by LPS stimulation for 24 hrs by Western blot analysis; type: functional, cell-based; settings: time 26.0 hrs
[15] = tested on: RAW264.7; assay: Anti-inflammatory activity in mouse RAW264.7 cells assessed as decrease in LPS-induced I-kappaB-alpha phosphorylation at 20 uM pretreated for 2 hrs followed by LPS stimulation for 24 hrs by Western blot analysis; type: functional, cell-based; settings: time 26.0 hrs
[16] = tested on: Mus musculus; assay: Downregulation of I-kappa-B-alpha phosphorylation in liver of LPS-induced sepsis BALB/c mouse model at 7.5 to 30 mg/kg administered via gavage for 3 days followed by LPS treatment for 6 hrs by Western blot analysis; type: functional, organism-based; settings: dose 7.5-30 mg/kg, time 78.0 hrs

SMILES: C[C@@H]1C[C@H]2[C@@H]3CCC4=CC(=O)C=C[C@]4(C)[C@@]3(F)[C@@H](O)C[C@]2(C)[C@@]1(O)C(=O)CO
- Activity [1]: Active
- Activity [2]: Active

SMILES: CC(C)=CCC[C@@](C)(O)C1CC[C@]2(C)[C@@H]1[C@H](O)C[C@@H]1[C@@]3(C)CC[C@H](O)C(C)(C)[C@@H]3CC[C@]12C (stereo partly specified)
- Activity [3]: inactive
- Activity [4]: Active
- Activity [5]: inactive
- inhibition at 10 µM [6]: 11.2%
- Activity [7]: inactive
- inhibition at 5 µM [8]: 7.09%
- Activity [9]: Active
- IC50 [10]: 34.4 µM
- Activity [11]: Active
- Activity [12]: Active
- inhibition at 20 µM [13]: 31.4%
- Activity [14]: Active
- Activity [15]: Active
- Activity [16]: inactive
